Measurements: patent US20250034185A1 (priority 2021, published 2025)

Test system: plasma enzymes
Conditions: Sprague Dawley, rat
Throughout, for P5P formed: test concentration or dose not given here.

Row | Structure (SMILES) | P5P formed | relative P5P formed
1 | Cc1ncc(COP(=O)(N[C@@H](C)C(=O)OC(C)C)Oc2ccccc2)c(CN)c1O (stereo partly drawn) [Compound 14, (2S)-Isopropyl 2-(((4-(aminomethyl)-5-hydroxy-6-methylpyridin-3-yl)methoxy)(phenoxy)phosphorylamino)propanoate] | 0 µM | 0.0%
2 | CCC(CC)COC(=O)[C@H](C)NP(=O)(OCc1cnc(C)c(O)c1CN)Oc1ccccc1 (stereo partly drawn) [Compound 14i, (2S)-2-Ethylbutyl 2-(((4-(aminomethyl)-5-hydroxy-6-methylpyridin-3-yl)methoxy)(phenoxy)phosphorylamino)propanoate] | 0.17 µM | 4.0%
3 | Cc1ncc(COP(=O)(NCC(=O)OC(C)C)Oc2ccccc2)c(CN)c1O (stereo not shown) [Compound 14ii, Isopropyl 2-(((4-(aminomethyl)-5-hydroxy-6-methylpyridin-3-yl)methoxy)(phenoxy)phosphorylamino)acetate] | 0 µM | 0.0%
4 | Cc1ncc(COP(=O)(N[C@@H](C)C(=O)OCc2ccccc2)Oc2ccccc2)c(CN)c1O (stereo partly drawn) [Compound 14iii, (2S)-Benzyl 2-(((4-(aminomethyl)-5-hydroxy-6-methylpyridin-3-yl)methoxy)(phenoxy)phosphorylamino)propanoate] | 0.7 µM | 6.7%
5 | Cc1ncc(COP(=O)(N[C@@H](C)C(=O)OC(C)C)Oc2cccc3ccccc23)c(CN)c1O (stereo partly drawn) [Compound 14ix, (2S)-Isopropyl 2-(((4-(aminomethyl)-5-hydroxy-6-methylpyridin-3-yl)methoxy)(naphthalen-1-yloxy)phosphorylamino)propanoate] | 0.4 µM | 6.3%
6 | Cc1ncc(COP(=O)(N[C@@H](C)C(=O)OC(C)C)Oc2ccc(Cl)cc2)c(CN)c1O (stereo partly drawn) [Compound 14v, (2S)-Isopropyl 2-(((4-(aminomethyl)-5-hydroxy-6-methylpyridin-3-yl)methoxy)(4-chlorophenoxy)phosphorylamino)propanoate] | 0.3 µM | 11.1%
7 | Cc1ccc(OC(=O)[C@H](C)NP(=O)(OCc2cnc(C)c(O)c2CN)Oc2ccccc2)cc1 (stereo partly drawn) [Compound 14vii, (2S)-p-Tolyl 2-(((4-(aminomethyl)-5-hydroxy-6-methylpyridin-3-yl)methoxy)(phenoxy)phosphorylamino)propanoate] | 0.5 µM | 12.2%
8 | [2H]C([2H])([2H])C(OC(=O)[C@H](C)NP(=O)(OCc1cnc(C)c(O)c1CN)Oc1ccccc1)C([2H])([2H])[2H] (stereo partly shown) [Compound 14viii] | 0.3 µM | 17.6%
9 | Cc1ncc(COP(=O)(N[C@@H](C)C(=O)OC2CCCC2)Oc2ccccc2)c(CN)c1O (stereo partly drawn) [Compound 14x, (2S)-Cyclopentyl 2-(((4-(aminomethyl)-5-hydroxy-6-methylpyridin-3-yl)methoxy)(phenoxy)phosphorylamino)propanoate] | 0.3 µM | 11.1%
10 | Cc1ncc(COP(=O)(N[C@@H](C)C(=O)OC(C)C)Oc2ccc(OC(F)(F)F)cc2)c(CN)c1O (stereo partly drawn) [Compound 14xi, (2S)-Isopropyl 2-(((4-(aminomethyl)-5-hydroxy-6-methylpyridin-3-yl)methoxy)(4-(trifluoromethoxy)phenoxy)phosphorylamino)propanoate] | 0.3 µM | 17.6%
11 | Cc1ncc(COP(=O)(N[C@@H](C)C(=O)Oc2ccc3c(c2)CCCC3)Oc2ccccc2)c(CN)c1O (stereo partly drawn) [Compound 14xii, (2S)-5,6,7,8-Tetrahydronaphthalen-2-yl 2-(((4-(aminomethyl)-5-hydroxy-6-methylpyridin-3-yl)methoxy)(phenoxy)phosphorylamino)propanoate] | 0.2 µM | 5.3%
12 | [2H]C([2H])(NP(=O)(OCc1cnc(C)c(O)c1CN)Oc1ccccc1)C(=O)OC(C([2H])([2H])[2H])C([2H])([2H])[2H] (stereo not shown) [Compound 14xiii] | 0.3 µM | 17.6%
13 | Cc1ncc(COP(=O)(N[C@@H](Cc2ccc(OCc3ccccc3)cc2)C(=O)OC(C)C)Oc2ccccc2)c(CN)c1O (stereo partly drawn) [Compound 14xiv, (2S)-Isopropyl 2-(((4-(aminomethyl)-5-hydroxy-6-methylpyridin-3-yl)methoxy)(phenoxy)phosphorylamino)-3-(4-(benzyloxy)phenyl)propanoate] | 0.3 µM | 8.3%
14 | Cc1ncc(COP(=O)(N[C@@H](C)C(=O)OC2CCN(C)CC2)Oc2ccccc2)c(CN)c1O (stereo partly drawn) [Compound 14xv, (2S)-1-Methylpiperidin-4-yl 2-(((4-(aminomethyl)-5-hydroxy-6-methylpyridin-3-yl)methoxy)(phenoxy)phosphorylamino)propanoate] | 0.3 µM | 10.3%
15 | Cc1ccc(OP(=O)(N[C@@H](C)C(=O)OC(C)C)OCc2cnc(C)c(O)c2CN)cc1 (stereo partly drawn) [Compound 14xvi, (2S)-Isopropyl 2-(((4-(aminomethyl)-5-hydroxy-6-methylpyridin-3-yl)methoxy)(p-tolyloxy)phosphorylamino)propanoate] | 0.3 µM | 10.3%
16 | Cc1ncc(COP(=O)(N[C@@H](C)C(=O)Oc2ccc(Cl)cc2)Oc2ccccc2)c(CN)c1O (stereo partly drawn) [Compound 14xvii, (2S)-4-Chlorophenyl 2-(((4-(aminomethyl)-5-hydroxy-6-methylpyridin-3-yl)methoxy)(phenoxy)phosphorylamino)propanoate] | 6.6 µM | 194.1%
17 | Cc1ncc(COP(=O)(N[C@@H](C)C(=O)OC(C)C)Oc2ccc(Br)cc2F)c(CN)c1O (stereo partly drawn) [Compound 14xviii, (2S)-Isopropyl 2-(((4-(aminomethyl)-5-hydroxy-6-methylpyridin-3-yl)methoxy)(4-bromo-2-fluorophenoxy)phosphorylamino)propanoate] | 2.4 µM | 96.0%
18 | Cc1ncc(CO[P@@](=O)(N[C@@H](C)C(=O)OC(C)C)Oc2ccccc2)c(CO)c1O [Compound 15i, (S)-Isopropyl 2-((S)-((5-hydroxy-4-(hydroxymethyl)-6-methylpyridin-3-yl)methoxy)(phenoxy)phosphorylamino)propanoate] | 0.15 µM | 2.6%
19 | Cc1ncc(COP(=O)(N[C@@H](C)C(=O)OC(C)C)Oc2ccccc2)c(CO)c1O (stereo partly drawn) [Compound 15ii, (S)-Isopropyl 2-((R)-((5-hydroxy-4-(hydroxymethyl)-6-methylpyridin-3-yl)methoxy)(phenoxy)phosphorylamino)propanoate] | 0 µM | 0.0%
20 | Cc1ncc(COP(=O)(N[C@@H](C)C(=O)OC(C)C)Oc2ccc(Cl)c(Cl)c2)c(CO)c1O (stereo partly drawn) [Compound 15iii, (2S)-Isopropyl 2-((3,4-dichlorophenoxy)((5-hydroxy-4-(hydroxymethyl)-6-methylpyridin-3-yl)methoxy)phosphorylamino)propanoate] | 0.4 µM | 7.4%
21 | Cc1ncc(COP(=O)(N[C@@H](C)C(=O)Oc2ccc3ccccc3c2)Oc2ccccc2)c(CO)c1O (stereo partly drawn) [Compound 15iv, (2S)-Naphthalen-2-yl 2-(((5-hydroxy-4-(hydroxymethyl)-6-methylpyridin-3-yl)methoxy)(phenoxy)phosphorylamino)propanoate] | 0.65 µM | 6.2%
22 | COC(=O)[C@H](C)NP(=O)(OCc1cnc(C)c(O)c1CO)Oc1ccccc1 (stereo partly drawn) [Compound 15vi, (2S)-Methyl 2-(((5-hydroxy-4-(hydroxymethyl)-6-methylpyridin-3-yl)methoxy)(phenoxy)phosphorylamino)propanoate] | 0 µM | 0.0%
23 | Cc1ncc(COP(=O)(N[C@@H](C)C(=O)OCC2CCCC2)Oc2ccccc2)c(CO)c1O (stereo partly drawn) [Compound 15vii, (2S)-Cyclopentylmethyl 2-(((5-hydroxy-4-(hydroxymethyl)-6-methylpyridin-3-yl)methoxy)(phenoxy)phosphorylamino)propanoate] | 0 µM | 0.0%
24 | Cc1ncc(COP(=O)(N[C@@H](C)C(=O)OC(C)C)Oc2cccc3ccccc23)c(CO)c1O (stereo partly drawn) [Compound 15x, (2S)-Isopropyl 2-(((5-hydroxy-4-(hydroxymethyl)-6-methylpyridin-3-yl)methoxy)(naphthalen-1-yloxy)phosphorylamino)propanoate] | 0 µM | 0.0%
25 | Cc1ncc(COP(=O)(N[C@@H](C)C(=O)OCc2ccccc2)Oc2ccccc2)c(CO)c1O (stereo partly drawn) [Compound 15xi, (2S)-Benzyl 2-(((5-hydroxy-4-(hydroxymethyl)-6-methylpyridin-3-yl)methoxy)(phenoxy)phosphorylamino)propanoate] | 1.1 µM | 10.5%
26 | Cc1ncc(COP(=O)(N[C@H](C(=O)OC(C)C)C2CCCC2)Oc2ccccc2)c(CO)c1O (stereo partly drawn) [Compound 15xii, (2S)-Isopropyl 2-cyclopentyl-2-(((5-hydroxy-4-(hydroxymethyl)-6-methylpyridin-3-yl)methoxy)(phenoxy)phosphorylamino)acetate] | 0.2 µM | 7.4%
27 | Cc1ncc(COP(=O)(N[C@@H](CC(C)C)C(=O)OC(C)C)Oc2ccccc2)c(CO)c1O (stereo partly drawn) [Compound 15xiii, (2S)-Isopropyl 2-(((5-hydroxy-4-(hydroxymethyl)-6-methylpyridin-3-yl)methoxy)(phenoxy)phosphorylamino)-4-methylpentanoate] | 0.8 µM | 15.7%
28 | Cc1ncc(COP(=O)(NC(CC(F)(F)F)C(=O)OC(C)C)Oc2ccccc2)c(CO)c1O (stereo not shown) [Compound 15xiv, Isopropyl 4,4,4-trifluoro-2-(((5-hydroxy-4-(hydroxymethyl)-6-methylpyridin-3-yl)methoxy)(phenoxy)phosphorylamino)butanoate] | 0.1 µM | 2.6%
29 | [2H]c1c([2H])c([2H])c(OP(=O)(N[C@@H](C)C(=O)OC(C)C)OCc2cnc(C)c(O)c2CO)c([2H])c1[2H] (stereo partly shown) [Compound 15xix] | 0.4 µM | 7.4%
